Data taken from BigSolDB 2.1.

Nc1ccc(N2CCOCC2=O)cc1
solubility (mole fraction)
Settings	in 1,4-dioxane	in THF	in ethanol	in ethyl acetate	in methanol	in n-propanol
278.15 K	0.00411	0.00138	0.00127	0.000559	0.00172	0.000322
283.15 K	0.00529	0.00182	0.00162	0.000794	0.00221	0.000404
288.15 K	0.00665	0.00245	0.00208	0.0011	0.00285	0.000506
293.15 K	0.0083	0.00323	0.0026	0.00149	0.00367	0.000649
298.15 K	0.0102	0.00423	0.00321	0.00196	0.00463	0.000825
303.15 K	0.0125	0.00542	0.00393	0.00257	0.00589	0.00105
308.15 K	0.0149	0.00687	0.00475	0.00326	0.00751	0.00133
313.15 K	0.0178	0.00865	0.00567	0.00412	0.00955	0.0017
318.15 K	0.0209	0.0107	0.00672	0.00509	0.0121	0.00216
323.15 K	0.0244	0.0132	0.00792	0.0062	0.0153	0.00274
328.15 K	0.0282	0.0159	0.00928	0.00743	0.019	0.00348
333.15 K	0.032	0.0191	0.0107	0.00873	0.0239	0.00443
